Measurements published in publication PMC4077696 (PLoS Biology, 2014).
Counter-ions that a name gives are not always drawn.

Legend:
[1] = test system: CC(C)C[C@H](NC(=O)[C@@H](NC(=O)[C@H](CCCNC(=N)N)NC(=O)[C@H](CCCCN)NC(=O)[C@H](CC(N)=O)NC(=O)[C@H](CCCNC(=N)N)NC(=O)c1ccc(N=Nc2ccc(N(C)C)cc2)cc1)[C@@H](C)O)C(=O)N[C@@H](C)C(=O)N[C@@H](CCC(N)=O)C(=O)N[C@@H](CCCCN)C(=O)N[C@@H](CCC(N)=O)C(=O)N[C@@H](CCC(=O)NCCNc1cccc2c(S(=O)(=O)O)cccc12)C(N)=O; assay: PEXEL cleavage assay with immunopurified PvPMVHA and fluorogenic KAHRP PEXEL peptide; format: biochemical, Plasmodium vivax; conditions: other: Michaelis–Menten, 2 h; pH 6.4; 37.0 °C
[2] = test system: P. falciparum protein translation; assay: Global protein synthesis by radiolabeling parasite proteins after drug treatment; format: cell-based, Plasmodium falciparum; conditions: for Global protein synthesis after 23 h treatment of rings: 15 µM or 50>15 µM, BFA 5 µg/ml; for Global protein synthesis after 5 h treatment of trophozoites: 15 or 50 µM, BFA 10 µg/ml, 15 min labeling
Procedure: To gain further insight into the effects of 916, 024, and 025 on parasites, we assessed global protein synthesis following drug treatment by radiolabeling parasite proteins. Treatment of trophozoites with inhibitor for 5 h prior to radiolabeling had no detectable effect on translation, even at 50 µM concentrations (Figure S4A), indicating the compounds are not direct inhibitors of the translation machinery. We next assessed protein synthesis following 23 h of drug treatment of ring stage parasites (aged 1–3 h old at the initiation of treatment). […] Indeed, Giemsa smears following treatment identified a small proportion of pyknotic parasites in the population (results not shown). […] It is possible that PMV inhibition by 916 treatment has a similar but weaker effect to BFA, in that it causes the accumulation of uncleaved PEXEL precursors in the ER, perturbing ER transport, and that this negatively affects translation by an ER stress response. An alternative possibility is that translation was decreased slightly as a result of parasites dying from 916-mediated impairment of erythrocyte remodeling. Either way, the profile for 916 was different to that seen for 024 and 025, even at 50 µM, indicating the latter analogs likely kill parasites via a different mechanism to 916.
Whole parasite proteins were radiolabeled by culturing magnet-purified trophozoites (wild-type 3D7 or expressing PfEMP3-GFP) in Met/Cys-free medium for 30 min at 37°C before addition of 800 µCi/ml ^35S-Met/Cys (Perkin/Elmer) to the medium for the indicated times. Pellets were snap frozen in ethanol/dry ice bath and stored at −80°C. For radiolabeling in the presence of PMV inhibitor, parasites were treated with 20 µM WEHI-916 for 5 h before labeling commenced. For pulse-chases, proteins were radiolabeled in the presence or absence of inhibitor, as above, before further culture in radiolabel-free, inhibitor-free complete medium for the indicated times at 37°C before snap freezing. Frozen samples were either solubilized in Laemmli's buffer (Figure S4) or solubilized in 1% Triton X-100/PBS with protease inhibitor cocktail (Roche) and PfEMP3-GFP species immunopurified with α-GFP agarose (MBL) at 4°C for 2 h (Figures 3 and S3), and proteins were resolved by SDS-PAGE, visualized by autoradiography (7-d exposures), and quantified using a GS-800 Calibrated Densitometer (Bio-Rad).

[3] = test system: Human Foreskin Fibroblasts (HFF); assay: Toxicity against Human Foreskin Fibroblasts; format: cell-based; conditions: Fibroblast
PvPMV = PvPMV (Plasmodium vivax, UniProt A5K302); assay: PEXEL cleavage assay with immunopurified PvPMVHA and fluorogenic KAHRP PEXEL peptide; format: biochemical
Procedure: To investigate PvPMVHA activity, we affinity purified it, as well as the PfPMVHA control, using anti-HA agarose, as previously described [13],[18].
PMV-agarose was prepared by adding α-HA-agarose (Sapphire Bioscience) to parasite lysates, prepared by sonication in 1% Triton X-100/PBS, for 1 h before extensive washing in same [12],[13]. […] Samples were excited at 340 nm and fluorescence emission measured at 492 nm using an Envision fluorescence plate reader (Perkin-Elmer) heated to 37°C for 150 min. Samples were shaken between measurements.

HEpG2 cells = assay: Toxicity against human HEpG2 cells; format: cell-based; conditions: toxicity against human cell line
PfPMV = PfPMV (Plasmodium falciparum, UniProt Q8I6Z5); assay: PEXEL cleavage assay with immunopurified PfPMVHA and fluorogenic KAHRP PEXEL peptide; format: biochemical; conditions: IC50 PfPMV, PfPMVHA
Procedure: (§1) To investigate PvPMVHA activity, we affinity purified it, as well as the PfPMVHA control, using anti-HA agarose, as previously described,[18]. […] The proteins were incubated with a fluorogenic peptide of nine amino acids that contained the PEXEL sequence from knob-associated histidine-rich protein (KAHRP), and efficient processing was observed by both enzymes (Figure 1E). Cleavage of KAHRP by PfPMVHA was previously shown to occur after Leu (RTL↓) by mass spectrometry, and this position was also confirmed for PvPMVHA (Figure S2B–E). […] In contrast, no processing was observed when the PEXEL Arg and Leu residues were mutated to Ala (ATAAQ), consistent with the substrate specificity of PfPMV (Figure 1E). To verify that processing was due to HA-tagged PMV rather than other co-precipitated proteases, we expressed in P. falciparum a mutant of PvPMVHA or PfPMVHA [13], where one or both catalytic Asp residues were mutated to Ala (see Figure 1A,B). Following affinity purification, the mutant enzymes were incubated with KAHRP PEXEL peptides, but no processing was observed (Figure 1E; blue, white), confirming that the PEXEL-dependent cleavage activity observed for each protease was attributable only to HA-tagged PMV.
(§2) Each compound was incubated with PfPMVHA in the presence of KAHRP PEXEL peptides.
(§3) PMV-agarose was prepared by adding α-HA-agarose (Sapphire Bioscience) to parasite lysates, prepared by sonication in 1% Triton X-100/PBS, for 1 h before extensive washing in same,[13]. PEXEL cleavage assays (20 µl total volume) consisted of 0.2 µl PMV-agarose in digest buffer (25 mM Tris, 25 mM MES, pH 6.4) with 1.5 µM FRET peptide substrate (DABCYL-[…]-E-EDANS, DABCYL-[…]-E-EDANS, LifeTein; DABCYL-[…]-E-EDANS, DABCYL-[…]-E-EDANS; Mimotopes) ± inhibitor. Samples were excited at 340 nm and fluorescence emission measured at 492 nm using an Envision fluorescence plate reader (Perkin-Elmer) heated to 37°C for 150 min. Samples were shaken between measurements. For determination of the peptide cleavage position by PvPMVHA, the fluorogenic peptide (DABCYL-[…]-E-EDANS), representing the wild-type KAHRP PEXEL sequence, was incubated with and without PvPMVHA at 37°C for 48 h. Products of the incubation were detected by a molecular formula algorithm using an Agilent 6200 TOF/6500 series mass spectrometer.

[4] = molecular target: PMV in P. falciparum–infected erythrocytes (Plasmodium falciparum, UniProt Q8I6Z5); assay: PEXEL processing of GFP reporters in parasites by immunoblot; format: cell-based; conditions: 5 h treatment, immunoblot
Procedure: To assess whether 916 could inhibit PMV in P. falciparum–infected erythrocytes, parasites expressing the PEXEL protein P. falciparum erythrocyte membrane protein 3 (PfEMP3) fused to green fluorescent protein (GFP) were treated with increasing concentrations of inhibitor, and PEXEL processing was evaluated by immunoblot. […] A GFP-only band, representing degraded chimera in the food vacuole, was also observed at ∼26 kDa (Figure 3A).
(§4) Trophozoites (30–34 h) expressing PfEMP3-GFP, KAHRP-GFP, or SERA5s-GFP were magnet-purified (Miltenyi Biotech), incubated with inhibitors in 400 µl total volume at 37°C for 1–5 h, treated with 0.09% saponin containing inhibitor, and washed pellets were solubilized in Laemmli's buffer, boiled for 3 min, and frozen at −20°C. Proteins were separated by SDS-PAGE, transferred to nitrocellulose and blocked in 10% skim milk/PBS-T, and probed with rat α-HA (Roche 3F10; 1∶1,000), mouse α-GFP (Roche; 1∶1,000), rabbit α-Aldolase (1∶1,000), rabbit α-HSP70 (1∶4,000), rabbit α-PfPMV (1∶1,000), or rabbit α-Hyp8 (1∶500) primary antibodies followed by horseradish peroxidase-conjugated secondary antibodies (Silenius) and detected by enhanced chemiluminescence (Amersham).

signal peptidase = assay: Signal peptide cleavage of SERA5s-GFP in parasites by immunoblot; format: cell-based, Plasmodium falciparum
Procedure: This protein contains a signal peptide but lacks a PEXEL and is efficiently secreted to the parasitophorous vacuole (Figure S3B).
as §4

[5] = test system: CC(C)C[C@H](NC(=O)[C@@H](NC(=O)[C@H](CCCNC(=N)N)NC(=O)[C@H](CCCCN)NC(=O)[C@H](CC(N)=O)NC(=O)[C@H](CCCNC(=N)N)NC(=O)c1ccc(N=Nc2ccc(N(C)C)cc2)cc1)[C@@H](C)O)C(=O)N[C@@H](C)C(=O)N[C@@H](CCC(N)=O)C(=O)N[C@@H](CCCCN)C(=O)N[C@@H](CCC(N)=O)C(=O)N[C@@H](CCC(=O)NCCNc1cccc2c(S(=O)(=O)O)cccc12)C(N)=O; assay: PEXEL cleavage assay with immunopurified PfPMVHA and fluorogenic KAHRP PEXEL peptide; format: biochemical, Plasmodium falciparum; conditions: other: Michaelis–Menten, 2 h; pH 6.4; 37.0 °C
Procedure: as §1, §2, §3

Chain of PvPMV (A5K302 35-536): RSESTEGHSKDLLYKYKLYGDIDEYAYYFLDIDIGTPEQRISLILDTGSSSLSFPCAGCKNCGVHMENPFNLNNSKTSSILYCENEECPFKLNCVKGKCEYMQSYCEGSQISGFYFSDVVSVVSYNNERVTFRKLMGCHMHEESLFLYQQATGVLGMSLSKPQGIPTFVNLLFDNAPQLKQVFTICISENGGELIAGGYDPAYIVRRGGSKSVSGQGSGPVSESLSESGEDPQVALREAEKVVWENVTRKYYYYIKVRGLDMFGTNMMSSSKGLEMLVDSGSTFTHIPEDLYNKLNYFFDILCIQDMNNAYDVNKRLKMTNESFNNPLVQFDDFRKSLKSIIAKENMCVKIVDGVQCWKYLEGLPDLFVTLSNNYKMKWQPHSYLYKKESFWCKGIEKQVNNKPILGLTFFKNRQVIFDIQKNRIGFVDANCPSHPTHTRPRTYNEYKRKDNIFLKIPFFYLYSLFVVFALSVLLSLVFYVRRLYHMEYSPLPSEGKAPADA
Chain of PMV in P. falciparum–infected erythrocytes (Q8I6Z5 whole entry, the tested form may be a part): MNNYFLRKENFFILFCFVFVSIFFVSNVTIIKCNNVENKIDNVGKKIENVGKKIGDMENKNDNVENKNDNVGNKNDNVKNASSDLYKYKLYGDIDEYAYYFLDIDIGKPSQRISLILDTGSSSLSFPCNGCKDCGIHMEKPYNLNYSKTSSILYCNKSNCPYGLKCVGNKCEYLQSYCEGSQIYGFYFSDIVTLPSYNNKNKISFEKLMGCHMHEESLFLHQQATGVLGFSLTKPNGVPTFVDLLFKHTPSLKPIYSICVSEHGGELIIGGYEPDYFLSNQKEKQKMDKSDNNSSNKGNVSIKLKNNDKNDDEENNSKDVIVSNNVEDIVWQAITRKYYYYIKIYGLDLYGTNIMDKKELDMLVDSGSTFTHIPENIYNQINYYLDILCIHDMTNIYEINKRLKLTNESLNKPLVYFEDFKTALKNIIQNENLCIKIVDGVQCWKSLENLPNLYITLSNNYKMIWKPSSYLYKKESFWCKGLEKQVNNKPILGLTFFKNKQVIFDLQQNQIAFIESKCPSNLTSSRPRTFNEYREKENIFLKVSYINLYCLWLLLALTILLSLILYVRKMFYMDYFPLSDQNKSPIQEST
Chain of PfPMV (Q8I6Z5 34-590): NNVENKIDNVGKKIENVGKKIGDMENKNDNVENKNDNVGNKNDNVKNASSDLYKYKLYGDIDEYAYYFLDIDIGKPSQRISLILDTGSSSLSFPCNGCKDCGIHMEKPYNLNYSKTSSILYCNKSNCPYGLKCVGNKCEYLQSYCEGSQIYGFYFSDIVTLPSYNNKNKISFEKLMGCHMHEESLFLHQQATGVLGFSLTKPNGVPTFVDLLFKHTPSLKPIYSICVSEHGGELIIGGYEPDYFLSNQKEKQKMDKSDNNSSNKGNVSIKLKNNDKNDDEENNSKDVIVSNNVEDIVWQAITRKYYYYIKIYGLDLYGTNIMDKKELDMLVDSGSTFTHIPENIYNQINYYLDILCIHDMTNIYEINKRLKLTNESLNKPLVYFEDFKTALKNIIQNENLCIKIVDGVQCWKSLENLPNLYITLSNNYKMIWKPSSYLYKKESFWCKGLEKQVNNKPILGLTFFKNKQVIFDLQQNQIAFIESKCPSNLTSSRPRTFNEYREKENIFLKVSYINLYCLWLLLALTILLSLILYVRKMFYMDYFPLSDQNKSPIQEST

## PvPMV (Plasmodium vivax Sal-1)
[1]
  Km: 9.7 (±3.0) µM

## C[C@H]1CCC/C=C/[C@@H]2C[C@H](O)C[C@H]2[C@H](O)/C=C/C(=O)O1 [Brefeldin A, reference compound]
[2]
  Global protein synthesis after 23 h treatment of rings: severely impaired translation
  Global protein synthesis after 5 h treatment of trophozoites: no defect in global protein synthesis
[2]; listed as BFA
  Global protein synthesis after 23 h treatment of rings: severely reduced translation

## CC(C)C[C@H](NC(=O)[C@@H](NC(=O)[C@H](CCCCN)NS(=O)(=O)Cc1ccccc1)C(C)C)[C@@H](O)CC(=O)NCCc1ccccc1 [compound 024, PhCH2SO2-Lys(NH2)-Val-Sta-NH(CH2)2Ph .TFA]
[3]
  IC50: > 100 µM
PvPMV
  Activity against PvPMVHA, in words: weak activity
  IC50: > 100 µM
[2]
  Global protein synthesis after 23 h treatment of rings: no defect in global protein synthesis
  Global protein synthesis after 5 h treatment of trophozoites: no defect in global protein synthesis
HEpG2 cells
  IC50: > 100 µM
PfPMV
  IC50: > 100 µM
[4]; 20 and 50 µM
  PEXEL processing of KAHRP-GFP in parasites, in words: no effect
[4]; up to 50 µM
  PEXEL processing of PfEMP3-GFP in parasites, in words: no effect
Signal peptidase; 20 µM for 5 h
  Signal peptide cleavage of SERA5s-GFP, in words: no defect
Signal peptidase; concentrations up to 50 µM
  Effect on PMV or signal peptidase activity in parasites, in words: no affect

## PfPMV (Plasmodium falciparum 3D7)
[5]
  Km: 11.7 (±1.8) µM
